The record followed here is US20250283046A1, “New Cell Populations and Means and Methods for their Differentiation and Preservation” (EVOTEC INTERNATIONAL GMBH, priority 2022, published 2025).

Holding throughout (format): cell-based, human
The test system of assay [1] is ILC cells. The assay can be described thus: Flow cytometry of islet-like clusters differentiated from hiPSC with the combination protocol. The method, then:
Beta cell differentiation from iPSC aggregates was carried out using several hiPSC lines with a new protocol derived by combining two published protocols (Nostro et al., Stem Cell Reports (2015), 4(4): 591-604; Rezania et al., Nat Biotechnol (2014), 32(11): 1121-1133), further referred to as “combination protocol”. iPSCs were seeded as single cells in suspension at 1×10^6 cells/mL in mTeSR1 (StemCell Technologies Inc.; 05850) with […] Y-27632 and kept in culture in 100 mL spinner flasks on a stirring platform to form aggregates under low shear conditions (see e.g. Fok and Zandstra, Stem Cells 2005; 23:1333-1342). At day 0 of differentiation, iPSC clusters were treated with Basal medium 1 (BM1) with the addition of 100 ng/mL Activin A, 2 μM CHIR 99021 and 10 μM Y-27632 to induce definitive endoderm. On subsequent days, media change was performed as described below, and occurred daily up to day 14, every other day after that. Definitive endoderm (DE) was induced from day 0 to day 3 and gut tube (GT) was patterned from day 3 to day 6. On day 6, pancreatic progenitors (PP) were induced until day 11. Commitment to the endocrine (EN) lineage was then performed between day 11 and day 14, and day 14 EN clusters were differentiated to islet-like clusters (ILCs) until day 24 (FIG. 1).
As a result, the content of chromogranin A^pos cells rose to levels above 95% (FIGS. 2A, 2C).
The addition of gamma secretase inhibitor and removal of T3 led to increased populations of pancreatic islet endocrine cells in islet-like clusters. […] In addition, the somatostatin^pos population was increased in islet-like clusters generated with the addition of gamma secretase inhibitor and removal of T3 (FIG. 7; FIG. 11; FIG. 14; FIG. 15A).
Quantification of the EC cell population in islet-like clusters was performed by FACS for serotonin^pos and C-peptide^neg cells. While islet-like clusters generated using the combination protocol (Control) contain 30% of pancreatic EC cells, the addition of gamma secretase inhibitor in absence of T3 (+GSI/−T3) led to a drastic reduction of this population, down to levels <15% (FIGS. 5A, 5B).
For orientation: In flow cytometry, cells or beads pass a laser one at a time.

The test system of assay [2] is ILC cells. As to the kind of experiment: Flow cytometry of islet-like clusters obtained with the second protocol. The settings on record: second protocol with addition of GSI and removal of T3. The source says: As the combination protocol, the second protocol starts with seeding and aggregation of single pluripotent cells in suspension, and proceeds through the same intermediate stages of pancreatic embryonic development (definitive endoderm/DE, primitive gut tube, pancreatic progenitors, endocrine differentiation) to beta cell-containing islet-like clusters (ILCs) containing C-peptide^pos/insulin^pos/NKX6.1^pos beta cells. Differences to the combined protocol include the addition of a combination of BMP4 and bFGF during the first day of DE induction (see also Example 4), and longer durations of media incubations during pancreatic progenitor and endocrine induction, resulting in an overall longer time from start of differentiation to EN stage (EN stage on day 16 instead of day 14). Similar to the combined protocol, the second protocol was modified by additional gamma secretase inhibitor treatment in absence of T3 during the EN to ILC transition. The latter version of the adapted protocol is referred to “second protocol +GSI/−T3”.

The test system of assay [3] is post-thaw islet-like clusters. As to the kind of experiment: Post-thaw recovery rate of islet-like clusters (viable cell count). The settings on record: combination protocol, frozen at EN stage with Medium A, freezing procedure A; GSI without T3 after thawing. The protocol: (§1) Using the combination protocol, induced pluripotent stem cells were differentiated into EN clusters. […] Clusters were cryoprotected before freezing by addition of the basal cryoprotective medium, consisting of KnockOut™ Serum Replacement, 10 μM ROCKi and 2 μM fatty acids, with increasing concentrations of DMSO and EG, in combination with incubation steps at decreasing temperatures. The DMSO and EG concentrations during the cryoprotection protocol and the corresponding stock concentrations, along with incubation times and temperatures, are given in table 1.
EN clusters, transferred to cryogenic vials, were frozen directly after the stepwise cryoprotection treatment in a controlled rate freezer using the following protocol (freezing procedure A): • 1. The sample is cooled-down to −7.5° C. (+/−0.7° C.); • 2. […]
Recovery rates were determined after post-thaw culture of 4-6 days, i.e. differentiation into islet-like clusters, by determination of viable cell count. Clusters, dissociated into single cells, were stained and analysed for different markers with flow cytometry. […]
Subsequent to the cryoprotection, the clusters were frozen using freezing procedure A, as described. […] Recovery rates of post-thaw islet-like clusters were determined by determination of viable cell count. Viability was determined with a viability staining with PI and FDA, imaged with a fluorescence microscope. […]

For assay [4], the system named is post-thaw islet-like clusters. As to the kind of experiment: Flow cytometry of post-thaw islet-like clusters. The note with it: combination protocol. The protocol: as §1
EN clusters, transferred to cryogenic vials, were frozen directly after the stepwise cryoprotection treatment in a controlled rate freezer using the following protocol (freezing procedure A): • 1. The sample is cooled-down to −7.5° C. (+/−0.7° C.); • 2. Induction of nucleation by mechanical agitation and inducing a supercool spot at the outer vial wall; • 3. Incubation for 15-minutes at −7.5° C.; • 4. Cool-down of sample to −40° C. at a rate of 0.3° C. per minute; • 5. Immersion of sample in liquid nitrogen; • 6. Transfer to liquid N2 tank for long-term storage.
After low-temperature storage of at least seven days, the EN clusters were thawed rapidly in a 37° C. waterbath and the cryoprotective medium is diluted with thawing medium, consisting of differentiation medium for the EN-stage as described previously, according to the combination protocol, supplemented with 20% KnockOut™ Serum Replacement and 10 μM ROCKi. After resuspension in fresh thawing medium, the EN clusters are cultured under standard culture conditions. The supplements in the thawing medium are removed by medium change after 24 hours, using differentiation medium for the EN-stage, according to the combination protocol, for further differentiation. Afterwards, the culture medium was refreshed regularly. […]
Recovery rates were determined after post-thaw culture of 4-6 days, i.e. differentiation into islet-like clusters, by determination of viable cell count. Clusters, dissociated into single cells, were stained and analysed for different markers with flow cytometry.

Assay [5] deals with post-thaw islet-like clusters. The assay can be described thus: Single-cell RNA sequencing of post-thaw islet-like clusters. The settings on record: second protocol, frozen at EN+1. The protocol:
While applying the second differentiation protocol, clusters were frozen at EN+1 using the described cryoprotective medium of 7.2% DMSO+2.8% EG added within the stepwise cryoprotection treatment and freezing procedure A. After thawing the EN clusters as described, the clusters were differentiated into islet-like clusters according to the second protocol (Control) in comparison to the second protocol with extension of GSI and without T3 addition. Single-cell RNA sequencing was carried out after thawing and differentiation into islet-like clusters, after dissociation of clusters into single cells.

The subject of the next assay is islet-like clusters. As to the kind of experiment: Single cell RNA sequencing and histology of islet-like clusters. The protocol: Beta cell differentiation from iPSC aggregates was carried out using several hiPSC lines with a new protocol derived by combining two published protocols (Nostro et al., Stem Cell Reports (2015), 4(4): 591-604; Rezania et al., Nat Biotechnol (2014), 32(11): 1121-1133), further referred to as “combination protocol”. iPSCs were seeded as single cells in suspension at 1×10^6 cells/mL in mTeSR1 (StemCell Technologies Inc.; 05850) with […] Y-27632 and kept in culture in 100 mL spinner flasks on a stirring platform to form aggregates under low shear conditions (see e.g. Fok and Zandstra, Stem Cells 2005; 23:1333-1342). At day 0 of differentiation, iPSC clusters were treated with Basal medium 1 (BM1) with the addition of 100 ng/mL Activin A, 2 μM CHIR 99021 and 10 μM Y-27632 to induce definitive endoderm. On subsequent days, media change was performed as described below, and occurred daily up to day 14, every other day after that. Definitive endoderm (DE) was induced from day 0 to day 3 and gut tube (GT) was patterned from day 3 to day 6. On day 6, pancreatic progenitors (PP) were induced until day 11. Commitment to the endocrine (EN) lineage was then performed between day 11 and day 14, and day 14 EN clusters were differentiated to islet-like clusters (ILCs) until day 24 (FIG. 1). […]

[6] abbreviates: addition of gamma secretase inhibitor and removal of T3, compared to control.
Where [7] appears, read: GSI in absence of T3 after thawing.

On to `C[C@H](NC(=O)Cc1cc(F)cc(F)c1)C(=O)N[C@H]1N=C(c2ccccc2)c2ccccc2N(C)C1=O` [gamma secretase inhibitor, gamma secretase inhibitor XXI (CAS 209986-17-4)], for which the “content of chromogranin A^pos cells” value in the assay on ILC cells [1] (addition of gamma secretase inhibitor (1 μM, day 14-17) and removal of T3 after EN stage, combination protocol) was “above 95%”. In addition, the “glucagon^pos cells” value with ILC cells [1] (setting [6]) was “Significantly higher numbers”. In the assay on ILC cells [1] (addition of gamma secretase inhibitor and removal of T3, FACS), the “NKX6.1^pos/C-peptide^pos beta cell population” value is more than 65%. For the same compound, in the assay on ILC cells [1] (addition of gamma secretase inhibitor in absence of T3), the VMAT1/SLC18A1 expression result was “similarly reduced”. Also, the “pancreatic EC cells (serotonin^pos and C-peptide^neg)” value with ILC cells [1] (addition of gamma secretase inhibitor in absence of T3, combination protocol, control 30%) is listed as less than 15%. In addition, in the assay on ILC cells [2], the “NKX6.1^pos/C-peptide^pos cells” value was “above 65%” and the “serotonin^pos/C-peptide^neg cells” value was “only a small fraction”. Besides, the “post-thaw recovery versus control” value in assay [3] is given as “increases the post-thaw recovery”. In addition, in assay [4] (setting [7]), the “number of Chromogranin^pos cells in post-thaw islet-like clusters versus control” value is reported as “increases” and the “number of beta-cells in post-thaw islet-like clusters versus control” value was “increases”. The “C-peptide^neg/serotonin^pos cell levels in post-thaw islet-like clusters versus control” value in assay [4] (GSI while omitting T3 after thawing) was “decreases”. Moreover, the “population of ductal cells, post-thaw” value in assay [5] (GSI without T3) is on record as “decreased to low levels”. Besides, in assay [5] (extended GSI in absence of T3), the “populations of ARX^pos cells, post-thaw, versus Ctrl” value is “increased”; the “populations of beta-cells, post-thaw, versus Ctrl” value is “increased”; the “somatostatin (SST)^pos cells, post-thaw, versus Ctrl” value was “increased”. Besides, the “ductal cells (SOX9^pos/CFTR^pos)” value in the assay with islet-like clusters (addition of gamma secretase inhibitor and removal of T3) was “Only residual ductal cells”. Moreover, the “somatostatin^pos population” value in the assay on islet-like clusters (setting [6]) is given as “increased”.
